Experimental data: patent publication US20210318306A1, “Compositions for and Methods of Neutralizing Lipopolysaccharide Toxicity and Methods of Identifying the Same” (priority 2020, published 2021)
“And” between values parts separate entries of the source, which are not always exact repeats. Identical values can stand only once. “Also recorded” adds a separate entry of the source.

Columns and labels:
Assay type in all cases: cell-based, human
HEK-Blue hTLR4 cells [1] = experiment: IL-8 dose response in HEK-Blue hTLR4 cells with P.g. LPS 1 μg/ml and 3X-24X dilutions of simple solutions (Example 4)
Procedure: (§1) HEK-Blue hTLR4 cells (Invivogen, cat #hkb-htlr4) were cultured in a DMEM culture medium supplemented with 10% FBS and 1% penstrep at 37° C. with 5% CO2. LPS from Porphyromonas gingivalis (P.g. LPS; Invivogen, cat #tlrl-pglps and cat #tlrl-ppglps) activates TLR4 receptor and downstream inflammation in HEK-Blue hTLR4 cells. P.g. LPS is co-incubated with HEK-Blue hTLR4 cells in the absence or presence of the simple solutions. Standard and ultrapure P.g. LPS were both used due to ultrapure being a specific ligand for the TLR4 receptor while standard LPS is a ligand for both TLR2 and TLR4.
(§2) The simple solutions a) Zinc Oxide (ZnO), b) Zinc Citrate (ZnCitrate), c) Zinc Oxide+Zinc Citrate (Dual Zinc; DZ), d) Dual Zinc+Arginine (DZA, zinc oxide, zinc citrate and arginine), and e) L-Arginine (Arg) were diluted at different concentrations with culture medium.
2) experiments using 3×, 6×, 12×, and 24× dilution fold of the simple solutions (see Table 6 below).
(§3) HEK-Blue hTLR4 cells were plated in 96-well plates and grown until confluent at 37° C. and 5% CO2 in HEK-blue selection media (DMEM with 10% FBS, 1% penicillin-streptomycin, and antibiotics for HEK-blue selection (Invivogen, cat #hb-sel)). Cells were co-incubated overnight with varying concentrations of different zinc actives as well as arginine and stimulated with either 0.1 μg/mL standard P. gingivalis LPS or 1 μg/mL ultrapure P. gingivalis LPS. Cell supernatants were collected for human inflammation cytokine panels using Multiplex and ELISA analysis.
(§4) Multiplex analysis was performed using the MILLIPLEX MAP Human Cytokine/Chemokine Magnetic Bead Panel—Immunology Multiplex Assay for IL-1, IL-6, IL-8, TNFα, and GM-CSF (Millipore Sigma, cat #HCYTOMAG-60K).
In order to understand the role of Arginine in the inhibition of LPS induced inflammation, a dose response experiment was performed using ultrapure P.g. LPS, which only specifically targets TLR4 receptor, in order to maximize the activation of NF-kB and expression of IL-8.
The testing samples were prepared as the stock simple solutions. […] The first serial dilution was made 3 times with water, a dilution factor simulating dilution of toothpastes while brushing. Additional serial dilutions were made by 2-fold of the first dilution to study dose response effect.

HEK-TLR4 cells = experiment: P. gingivalis LPS-induced cytokine secretion by HEK-TLR4 cells, Luminex 5-plex magnetic bead panel (Example 2)
Procedure: Commercially available HEK-Blue TLR4 cells (Invitrogen) are recombinant HEK 293 cells that have been transformed with DNA that encodes TLR4 that is expressed and present on the cell surface. HEK-Blue TLR4 cells are grown ion culture and used can be used in experimental assays to identify test compositions that modulate inflammation pathways stimulated by TLR4-LPS interaction.
Initial for LPS and zinc-containing starting solutions were made as follows. An LPS starting solution was prepared as follows: a […] solution of LPS was prepared using 2 μl of 1 mg/ml LPS and 10 ml media. Multiple zinc starting solutions were each prepared using media as diluent: a) 20 mM zinc oxide, b) 2 mM zinc oxide, c) 20 mM zinc citrate, d) 2 mM zinc citrate, e) 20 mM of a composition containing a 2:1 mixture of zinc oxide and zinc citrate and f) 2 mM of a composition containing a 2:1 mixture of zinc oxide and zinc citrate. The starting solutions were used to prepare various test samples.
In some embodiments, control assays include “Untreated”, in which eight Zinc test samples without LPS were made: […], 10 mM zinc oxide+zinc citrate, 1 mM zinc oxide+zinc citrate, 10 mM zinc oxide+zinc citrate+arginine and 1 mM zinc oxide+zinc citrate+arginine, The test samples without LPS were prepared by diluting the zinc starting solutions with equal parts media. Eight test samples with LPS were made: […], […], […], […], 10 mM zinc oxide+zinc citrate LPS, 1 mM zinc oxide+zinc citrate LPS, 10 mM zinc oxide+zinc citrate+arginine LPS and 1 mM zinc oxide+zinc citrate+arginine LPS. The test samples with LPS were prepared by diluting the zinc starting solutions with equal parts LPS starting solution.
(§5) Cells were grown to 70-80% confluent in a 96 well plate. 100 uL of a test sample was added to a well. Cells with test sample were incubated overnight. Media was collected from each well and transferred to a corresponding well in a 96-well plate. Assays to measure proinflammatory cytokines including IL-8 secretion were performed for each well.
(§6) Inflammation markers in supernatants collected from HEK-Blue cells co-incubated with Zinc and Zinc+LPS were quantified using Luminex Magpix instrument (MAGPIX-XPON42) and human 5-plex cytokine/chemokine Magnetic bead panel (Millipore HCYTOMAG-60K). The human 5-plex cytokine/chemokine Magnetic bead panel quantifies TNF-α, IL-6, IL-8, IL-1β and GM-CSF.
The Luminex Kit Procedure outlined in the instruction manual for each separate Luminex kit was performed on the supernatants collected from the HEK-Blue cells co-incubated with Zinc test solutions without LPS and Zinc test solutions plus LPS. Quality controls in range for the specified analytes were performed to ensure levels were within the acceptable range.
To run the Luminex Test, all necessary calibration and verification procedures as outlined by the MagPix and xPonent softwares were completed and the appropriate protocol for the assay was selected. The standards were verified to be correct and complete the plate layout of samples was verified. […] The “Avg. Result” was identified in the results generated.
Experiments were conducted to identify compositions that inhibit P. gingivalis LPS-induced IL-8, TNFα, GM-CSF, IL-1β and IL-6 by HEK-TLR4 cells. HEK-TLR4 cells in 96 well plates were contacted with 100 μl samples. IL-8, TNFα, GM-CSF, IL-1β and IL-6 were detected as described above.

HEK-Blue hTLR4 cells [2] = experiment: IL-8 in HEK-Blue hTLR4 cell supernatants with standard P.g. LPS and simple solutions at 1 mM vs 10 mM total zinc (Example 4)
Procedure: as §1, §2
1) experiments using 1 mM vs 10 mM total zinc; and
as §3, §4
Testing was performed using total zinc concentrations to normalize the amount the zinc applied in the cell culture medium during co-incubation. Two concentrations of total zinc ion are based on the potential amount of zinc retained on the mouth soft tissue surface.

HEK-Blue hTLR4 cells [3] = experiment: E. coli LPS- and P. gingivalis LPS-induced IL-8 by HEK-Blue hTLR4 cells (Example 3)
Procedure: as §5, §6
Experiments were conducted to identify compositions that inhibit E. coli LPS-induced IL-8 and P. gingivalis LPS-induced IL-8 by HEK-Blue hTLR4 cells. HEK-TLR4 cells in 96 well plates were contacted with 100 μl samples. IL-8 was detected as described above.

[4] = 3X dilution of stock simple solution (Table 6) with P.g. LPS (1 μg/ml)
[5] = 6X dilution of stock simple solution (Table 6) with P.g. LPS (1 μg/ml)
[6] = 12X dilution of stock simple solution (Table 6) with P.g. LPS (1 μg/ml)
[7] = 24X dilution of stock simple solution (Table 6) with P.g. LPS (1 μg/ml)
[8] = 300 ppm with 0.1μ/ml P. gingivalis LPS
[9] = 600 ppm with 0.1μ/ml P. gingivalis LPS
[10] = P. gingivalis LPS, 300 and 600 ppm
[11] = 1 mM total zinc with standard P.g. LPS (0.1 μg/ml)
[12] = 10 mM total zinc with standard P.g. LPS (0.1 μg/ml)

## [O]=[Zn] [ZnO, zinc oxide]
HEK-Blue hTLR4 cells [1]; [4]
  IL-8 Concentration, Average: 29.0 pg/mL
  IL-8 Concentration, replicate: 32.6 pg/mL and 25.5 pg/mL
HEK-Blue hTLR4 cells [1]; [5]
  IL-8 Concentration, Average: 510.0 pg/mL
  IL-8 Concentration, replicate: 646.1 pg/mL and 374.0 pg/mL
HEK-Blue hTLR4 cells [1]; [6]
  IL-8 Concentration, Average: 2658.0 pg/mL
  IL-8 Concentration, replicate: 2699.5 pg/mL and 2616.4 pg/mL
HEK-Blue hTLR4 cells [1]; [7]
  IL-8 Concentration, Average: 3015.5 pg/mL
  IL-8 Concentration, replicate: 3010.4 pg/mL and 3020.6 pg/mL
HEK-Blue hTLR4 cells [1]; when dilution folds increase
  inhibition of IL-8 (in words): lose the inhibition of IL-8 gradually
HEK-TLR4 cells; [8]
  GM-CSF (raw data, single replicate): 0.5501 pg/ml (2×) and 0.633 pg/ml and 1.577 pg/ml
  IL-1β (raw data, single replicate): 6.491 pg/ml (2×) and 5.944 pg/ml and 6.674 pg/ml
  IL-6 (raw data, single replicate): 3.316 pg/mL and 3.775 pg/mL and 3.171 pg/mL and 4.174 pg/mL
  IL-8 (average result): 24200.24439257880 pg/mL
  IL-8 (raw data, single replicate): 31890.081340469700 pg/mL and 39006.703793117100 pg/mL and 13910.330133842900 pg/mL and 11993.862302885500 pg/mL
  TNF-α (average result): 42.3 pg/mL
  TNFα (raw data, single replicate): 41.56 pg/mL and 39.8 pg/mL and 38.16 pg/mL and 49.7 pg/mL
HEK-TLR4 cells; 300 ppm, without LPS
  GM-CSF (raw data, single replicate): <3.2 pg/ml (2×) and 0.3057 pg/ml and 0.5501 pg/ml
  IL-1β (raw data, single replicate): 0.4614 pg/ml (2×) and 0.8647 pg/ml and 1.507 pg/ml
  IL-6 (raw data, single replicate): 0.4605 pg/mL and 0.6587 pg/mL and 0.9797 pg/mL and 1.293 pg/mL
  IL-8 (average result): 452.8 pg/mL
  IL-8 (raw data, single replicate): 340.2 pg/mL and 393.1 pg/mL and 458.8 pg/mL and 619.1 pg/mL
  TNF-α (average result): 1.202 pg/mL
  TNFα (raw data, single replicate): 0.9029 pg/mL and 1.031 pg/mL and 1.244 pg/mL and 1.631 pg/mL
HEK-TLR4 cells; [9]
  GM-CSF (raw data, single replicate): 1.142 pg/mL and 1.315 pg/mL and 0.3863 pg/mL and 0.3057 pg/mL
  IL-1β (raw data, single replicate): 6.735 pg/mL and 6.309 pg/mL and 6.035 pg/mL and 5.701 pg/mL
  IL-6 (raw data, single replicate): 2.617 pg/mL and 2.44 pg/mL and 1.782 pg/mL and 2.023 pg/mL
  IL-8 (average result): 17453.90185032290 pg/mL
  IL-8 (raw data, single replicate): 21030.114488079100 pg/mL and 14514.694724312700 pg/mL and 20392.976523123200 pg/mL and 13877.821665776500 pg/mL
  TNF-α (average result): 26.47 pg/mL
  TNFα (raw data, single replicate): 43.99 pg/mL and 24.75 pg/mL and 19.13 pg/mL and 18.02 pg/mL
HEK-TLR4 cells; 600 ppm, without LPS
  GM-CSF (raw data, single replicate): 0.8854 pg/ml and 0.2263 pg/ml and 0.001671 pg/ml (2×)
  IL-1β (raw data, single replicate): 2.871 pg/mL and 1.039 pg/mL and 0.4329 pg/mL and 0.4044 pg/mL
  IL-6 (raw data, single replicate): 1.011 pg/ml and 0.3248 pg/ml and <3.2 pg/ml (2×)
  IL-8 (average result): 558.8 pg/mL
  IL-8 (raw data, single replicate): 993.3 pg/mL and 512.5 pg/mL and 355.4 pg/mL and 374 pg/mL
  TNF-α (average result): 2.405 pg/mL
  TNFα (raw data, single replicate): 3.729 pg/mL and 2.195 pg/mL and 1.804 pg/mL and 1.891 pg/mL
HEK-TLR4 cells; [10]
  effect on LPS-induced TNFα (in words): reduced LPS-induced TNFα; also recorded: significantly reduced
  effect on induction of IL-8 by LPS (in words): significantly reduced; also recorded: comparatively small effect
HEK-Blue hTLR4 cells [2]; [11]
  IL-8 Concentration, Average: 39.5 pg/mL
  IL-8 Concentration, replicate: 42.95 pg/mL and 30.75 pg/mL and 35.45 pg/mL and 48.85 pg/mL
HEK-Blue hTLR4 cells [2]; [12]
  IL-8 Concentration, Average: 18.9 pg/mL
  IL-8 Concentration, replicate: 20.35 pg/mL and 27.65 pg/mL and 10.45 pg/mL and 16.95 pg/mL
HEK-Blue hTLR4 cells [2]; at both 1 mM and 10 mM
  IL-8 induced by co-incubation with P.g. LPS (in words): reduced
HEK-Blue hTLR4 cells [3]; 100 ppm with 1.0 μg/ml E. coli LPS
  IL-8 (average): 317267829 pg/mL
HEK-Blue hTLR4 cells [3]; 100 ppm with 1.0 μg/ml P. gingivalis LPS
  IL-8 (average): 210374063 pg/mL
HEK-Blue hTLR4 cells [3]; 100 ppm, without LPS
  IL-8 (average): 610.1 pg/mL
HEK-Blue hTLR4 cells [3]; 500 ppm and 100 ppm
  inhibitory effect on P. gingivalis LPS-induced IL-8 (in words): inhibitory effect
HEK-Blue hTLR4 cells [3]; 500 ppm with 1.0 μg/ml E. coli LPS
  IL-8 (average): 564963251 pg/mL
HEK-Blue hTLR4 cells [3]; 500 ppm with 1.0 μg/ml P. gingivalis LPS
  IL-8 (average): 275576697 pg/mL
HEK-Blue hTLR4 cells [3]; 500 ppm, without LPS
  IL-8 (average): 448.6 pg/mL
